# Assay results as given in article PMC9231138, “Dihydrotanshinone I Enhances Cell Adhesion and Inhibits Cell Migration in Osteosarcoma U−2 OS Cells through CD44 and Chemokine Signaling” (Molecules, 2022).
# How the values were obtained:
# slug = test: RT-PCR slug mRNA in U−2 OS cells; type: cell-based, human; details: 24 h
# Procedure: (§1) Total RNA within cells was extracted by the RNAeasy™ Animal Long RNA Isolation Kit with Spin Column (Shanghai, Beyotime); the concentrations and OD260/OD280 and OD230/OD260 values were measured by NanoDrop. Five micrograms of RNA was used for reverse transcription; each sample was diluted to 16 μL, and 4 μL of synthesized premix solution (5×) was added, then the mixtures were placed in a 42 °C water bath for 10 min, then an 80 °C water bath for 10 min to deactivate reverse transcriptase. After reverse transcription, each sample was diluted to 140 μL. PCR amplification was carried out by the ABI700 real-time PCR system, and the amplification reaction was detected with a SYBR probe. After PCR, actin and GAPDH were used as internal references, and the relative standard curve method (2^−ΔΔcT) determined the relative expression of mRNA.
# NRK−49F cells [1] = test: Cell adhesion against trypsin digestion, NRK−49F cells; type: cell-based, rat; details: DS-1 6.25, 12.5 μM for 24 h
# p53 = test: Western blot p53; type: cell-based, human; details: DS−1 2.5, 5.0, and 7.5 µM, 24 h
# Procedure: (§2) Sample preparation: U−2 OS cells seeded in 10 cm Petri dishes were collected and washed with ice-cold PBS and RIPA lysis buffer with PMAF; phosphatase inhibitor was added, and the tubes were placed on ice for 30 min and vortexed for 30 s at intervals of 10 min. The samples were centrifuged at 12,000 g at 4 °C for 15 min, and the supernatants were collected in new centrifuge tubes. The protein samples were placed on ice, and the concentration of each protein sample was measured by the BCA kit (Thermo). The protein concentration was adjusted to the same by milli Q ultrapure water.
# (§3) Loading and running the gel: Equal amounts of protein were loaded into the wells of the 10% SDS-PAGE gel, along with molecular weight markers, and 15 μg of total protein from the cell lysate was loaded. We then ran the gel for 45 min at 200 V.
# (§4) Transferring the protein: We prepared the transfer stack as follows: negative plate, sponge, filter paper, gel, PVDF membrane, filter paper, sponge, and positive plate. The transfer was for 90 min at 200 mA.
# (§5) Antibody staining: We blocked the membrane for 1 h at room temperature using 5% blocking solution, then incubated the membrane with appropriate dilutions of the primary antibody in the blocking solution overnight at 4 °C. […] Images were acquired using darkroom development techniques for chemiluminescence and analyzed by Image J.
# MT-MMP-1 = test: RT-PCR MT-MMP-1 mRNA in U−2 OS cells; type: cell-based, human
# Procedure: as §1
# STAT3 = test: Western blot STAT3; type: cell-based, human; details: DS−1 2.5, 5.0, and 7.5 µM, 24 h
# Procedure: as §2, §3, §4, §5
# CDK4 = test: RT-PCR CDK4 mRNA in U−2 OS cells; type: cell-based, human; details: 24 h
# Procedure: as §1
# HeLa cells [2] = test: Cell adhesion against trypsin digestion, HeLa cells; type: cell-based, human; details: DS-1 10.0, 15.0, 20.0 μM for 24 h
# From the text: Dihydrotanshinone I enhances cell adhesion and inhibits cell migration in osteosarcoma U-2 OS cell through CD44
# Lanyan Fan1, 2, Chen Peng2, Xiaoping Zhu1, 2, Yawen Liang2, Ti anyi Xu2, Peng Xu1 and Shihua Wu1, 2* 1 Joint Research Centre for Engineering Biology, Zhejiang University-University of Edinburgh Institute, Zhejiang University, Haining 314400, China
# 2 Research Center of Siyuan Natural Pharmacy and Biotoxicology, College of Life Sciences, Zhejiang University, Hangzhou, Zhejiang Province 310058, China
# * Correspondence: Drwushihua@zju.edu.cn, Shihuawu@intl.zju.edu.cn; Tel.: +86-13968131541 Legends for Supplementary figures
# Figure S1. The chemical structures of major tanshinones isolated from Salvia miltiorrhiza rhizome.
# Figure S2. The effects of DS-1 on HeLa cell adhesion on cell culture plates against trypsin digestion. (A) Hela cells were seeded at 80000 per well in 6-well plates for 12 h, then treated with 0, 10.0, 15.0, 20.0 μM DS-1 for 24 h.
# After that, cells were washed by PBS solution and digested by 400 μL 0.25% trypsin. During the digestion, cellular morphology was recorded by inverted microscope with camera every 30 seconds. The digestion time […]
# Figure S3. […]
# cellular morphology was recorded by inverted microscope every 30 seconds. […]
# Figure S4. […] The relative expression of CD44 was detected by Western Blot and […]
# NRK−49F cells [3] = test: MTT cell proliferation assay, NRK−49F cells; type: cell-based, rat; details: Rattus norvegicus, 24 h, read-out: IC50 NRK−49F cells (24 h)
# Procedure: (§6) The effects of tanshinones (DS−1 to DS−5) on the proliferation of U−2 OS cells, HeLa cells, and NRK−49F cells were measured by the classical MTT method with minor modifications as follows. Cells were seeded at 5000 per well in 96-well plates, with each group being repeated in 5 wells, and were incubated for 12 h. DS−1 to DS−5 were added at gradient concentrations, then incubated for 24 and 48 h, respectively. Then, 20 μL MTT solution (solved in PBS, 5 mg/mL) was added to every well, and the cells were further incubated at 37 °C for 4 h until a purple precipitate was visible. The plate was centrifuged at 1000 rpm for 1 min; the supernatant was suctioned, and 150 μL of DMSO was added per well; the plate was shaken on a shaker protected from light for 15 min. We placed the plate in an enzyme marker and measured the absorbance values at a 490 nm wavelength.
# HeLa cells [4] = test: MTT cell proliferation assay, HeLa cells; type: cell-based; details: Homo sapiens, 24 h, read-out: IC50 HeLa cells (24 h)
# Procedure: as §6
smiles,measurement,setting,value
"Cc1cccc2c3c(ccc12)C1=C(C(=O)C3=O)[C@@H](C)CO1 [DS−1, 15,16-Dihydrotanshinone I]","slug mRNA, fold of the control group",slug; DS−1 5.0 µM,0.58 ± 0.13 fold
same,"slug mRNA, fold of the control group",slug; DS−1 7.5 µM,0.45 ± 0.07 fold
same,cell adhesion on the cell culture plate against trypsin digestion,NRK−49F cells [1],stronger cell adhesion
same,level of p53,p53,significantly increased
same,"MT-MMP-1 mRNA expression, fold",MT-MMP-1; DS−1 2.5 µM,0.92 ± 0.14 fold
same,"MT-MMP-1 mRNA expression, fold",MT-MMP-1; DS−1 5.0 µM,0.72 ± 0.03 fold
same,"MT-MMP-1 mRNA expression, fold",MT-MMP-1; DS−1 7.5 µM,0.07 ± 0.13 fold
same,total protein content of STAT3,STAT3,did not change significantly
same,"CDK4 mRNA, fold of the control group",CDK4; first of three DS−1 doses (2.5 µM per Fig. 5 legend),0.53 ± 0.06 fold
same,"CDK4 mRNA, fold of the control group",CDK4; second of three DS−1 doses (5.0 µM per Fig. 5 legend),0.37 ± 0.02 fold
same,"CDK4 mRNA, fold of the control group",CDK4; third of three DS−1 doses (7.5 µM per Fig. 5 legend),0.29 ± 0.05 fold
same,cell adhesion against trypsin digestion on cell culture plates,HeLa cells [2],not significant
same,IC50,NRK−49F cells [3],25 ± 1.98 µM
same,IC50,HeLa cells [4],15.5 ± 0.98 µM
